# Reference: patent publication US20170056561A1, “COMPOSITIONS FOR THE TREATMENT OF JOINTS” (CorMedix Inc., priority 2015, published 2017)
# Experiments:
# [1] = tested on: Pseudomonas aeruginosa (PAO1); experiment: Solution exposure of HA/taurolidine hydrogels to living cultures (bacteria kill); type: cell-based; details: 20 μl early phase culture in 980 μl formulation
# Procedure: (§1) The following evaluations were done to assess the performance of gels comprising hyaluronic acid and taurolidine. Solution exposure of the hyaluronic acid/taurolidine hydrogels, immersed in early phase concentrations of 2 test microorganisms, were conducted. Additionally, the physical properties of the hydrogels were assessed to determine their shear/thixotropic properties.
# (§2) In this study, two strains of bacteria, Pseudomonas aeruginosa (PAO1) and Stapylococcus aureus strain SA 113), were evaluated for total kill of each of the strains after 4 and 24 hours of exposure. 20 μl of early phase culture of each strain was placed in 980 μl of each hyaluronic acid/taurolidine formulation. Samples of remaining bacteria concentrations were determined for the samples after 4 and 24 hours of exposure. Four controls were prepared, one control without hyaluronic acid and three other controls with different molecular weights of hyaluronic acid (low, medium and high MW) (all without taurolidine). These were compared against the same 3 different molecular weights of hyaluronic acid which contained taurolidine, with each hyaluronic acid MW containing target concentrations of 1.5, 3, or 6% taurolidine by weight in the hyaluronic acid hydrogel matrix (Table 1). […] These were also evaluated against a known antimicrobial, gentamicin.
# [2] = tested on: Stapylococcus aureus strain SA 113; experiment: as above; type: cell-based; details: 20 μl early phase culture in 980 μl formulation
# Procedure: as §1, §2
substance,measurement,setting,value
Gentamicin,Remaining bacteria concentrations PA01 (4 hr),[1]; 4 hour exposure,0.00E+00
same,Remaining bacteria concentrations PA01 (24 hr),[1]; 24 hour exposure,0.00E+00
same,Remaining bacteria concentrations SA113 (4 hr),[2]; 4 hour exposure,3.77E+02
same,Remaining bacteria concentrations SA113 (24 hr),[2]; 24 hour exposure,8.33E+00
